Data on 38 compounds can be found in patent US20190008848A1, “IDENTIFICATION OF ADDITIONAL ANTI-PERSISTER ACTIVITY AGAINST BORRELIA BURGDORFERI FROM AN FDA DRUG LIBRARY” (THE JOHNS HOPKINS UNIVERSITY, priority 2015, published 2019).

Series [1] relates to stationary phase B. burgdorferi. Nature of the series: Residual viable B. burgdorferi by epifluorescence microscope counting after drug exposure. The conditions noted are these: for viability at 50 µM: Borreliella burgdorferi, 168 h, read-out: Residual viable cells (Microscopy). As for the experimental part: (§1) Borrelia burgdorferi strain B31 (ATCC35210) was received from the […] (Manassas, Va., USA) and was grown in BSK-H medium (HiMedia Laboratories, Mumbai, India) and 6% rabbit serum (Sigma Aldrich, St. Louis, Mo., USA). The culture was filtered and sterilized using a […] and incubated in capped sterile 50 mL conical tubes (BD Biosciences, CA, USA) at 33° C. for 7 days without antibiotics until the culture reached stationary phase.
(§2) The cultures were examined using a Nikon Eclipse E800 microscope with differential interference contrast and epifluorescent illumination. The pictures were captured using a SPOT slider color camera. A SYBR Green I/PI assay was used to assess the viability of the bacterial sample using the ratio of live to dead B. burgdorferi (measured with green and red fluorescence, respectively) as measured by a plate reader.
(§3) Briefly, prediluted drug stock (10 μL) was added to 7 day old stationary phase B. burgdorferi culture (90 μL) to achieve a 50 μM final drug concentration per well. The plates were then incubated at 33° C. for 7 days at which point the SYBR/PI rapid viability assay was performed in a fluorescence plate reader to obtain the green-red fluorescence ratio.

Series [2] has the same test system. Nature of the series: SYBR Green I/PI viability assay (drug library screen, plate reader). The settings on record: for viability at 50 µM: Borreliella burgdorferi, 168 h; for activity against stationary phase B. burgdorferi (in words): screen at 50 μM, 7 days; for Residual viable cells (SYBR/PI): Table 3. As for the experimental part:
as §1, §2, §3

Setting [3] is: read-out: Residual viable cells (SYBR Green/PI), Table 1, drugs 50 μM, 7 day old stationary phase cells treated for 7 days.
The mark [4] stands for this setting: read-out: Residual viable cells (SYBR/PI), Table 3, drugs 50 μM, 7-day old stationary phase cells treated for 7 days.
Where [5] appears, read: read-out: Residual viable cells (SYBR Green/PI).
[6] abbreviates: read-out: Residual viable cells (SYBR/PI).
Setting [7] is: drugs 50 μM, 7-day old stationary phase cells treated for 7 days.

Where a name gives a salt, the structure may show the parent alone.

For `CCc1nc(N)nc(N)c1-c1ccc(Cl)cc1` [Pyrimethamine], the viability at 50 µM amounted to 55% in series [1], 45% in series [2] (setting [3]) and 45% in series [2] (setting [4]).

On to `C=C(NC(=O)C(=C)NC(=O)c1csc(C2=N[C@@H]3c4csc(n4)[C@H]4NC(=O)c5csc(n5)[C@H]([C@](C)(O)[C@@H](C)O)NC(=O)[C@H]5CSC(=N5)/C(=C/C)NC(=O)[C@H]([C@@H](C)O)NC(=O)c5csc(n5)[C@]3(CC2)NC(=O)[C@H](C)NC(=O)C(=C)NC(=O)[C@H](C)NC(=O)[C@H]([C@@H](C)CC)N[C@@H]2C=Cc3c([C@H](C)O)cc(nc3[C@H]2O)C(=O)O[C@@H]4C)n1)C(N)=O` [Thiostrepton], for which the viability at 50 µM in series [1] was 66%; in series [2] (setting [5]), 43%; in series [2] (setting [6]), 43%.

On to `C[C@@H]1CC[C@H]2[C@@H](C)C(=O)O[C@@H]3O[C@@]4(C)CC[C@@H]1[C@]32OO4` [Artemesinin], for which the viability at 50 µM in series [1] was 45%; in series [2] (setting [3]), 49%; in series [2] (setting [4]) it was 49%. Further, in series [2], the “activity against stationary phase B. burgdorferi (in words)” value (from here on “activity”) was “good activity”.

In the case of `CC1(C)S[C@@H]2[C@H](NC(=O)C(C(=O)O)c3ccccc3)C(=O)N2[C@H]1C(=O)O` (stereo partly drawn) [Carbenicillin], the figures for the viability at 50 µM in series [1], in series [2] (setting [3]) and in series [2] (setting [4]) were 64%, 46% and 46%, respectively.

`c1ccc2c(c1)Nc1ccccc1S2` [Phenothiazine]: the viability at 50 µM stood at 53% in series [1], 54% in series [2] (setting [5]) and 54% in series [2] (setting [6]).

For the compound `CC[C@H]1OC(=O)[C@H](C)[C@@H](O[C@H]2C[C@@](C)(OC)[C@@H](O)[C@H](C)O2)[C@H](C)[C@@H](O[C@@H]2O[C@H](C)C[C@H](N(C)C)[C@H]2O)[C@](C)(O)C[C@@H](C)/C(=N\OCOCCOC)[C@H](C)[C@@H](O)[C@]1(C)O` [Roxithromycin], the viability at 50 µM in series [1] is 65%; in series [2] (setting [3]), 62%; in series [2] (setting [4]), 62%.

On to `c1ccc(-c2ccc(C(c3ccccc3)n3ccnc3)cc2)cc1` (stereo not drawn) [Bifonazole], for which the viability at 50 µM in series [1] was 50%; in series [2] (setting [3]) it was 48%; in series [2] (setting [4]), 48%. Besides, the “activity” value in series [2] was “reasonable activity”.

Take `[I-].[K+]` [Potassium iodide]: the “Residual viable cells (SYBR/PI)” value in series [2] (setting [7]) turned out to be 65%.

For the compound `O=c1n(Cl)c(=O)n(Cl)c(=O)n1Cl` [Symclosene (Trichloroisocyanuric acid), Trichloroisocyanuric acid], the viability at 50 µM in series [2] (setting [6]) is 60%.

Regarding `CS(=O)(=O)c1ccc([C@@H](O)[C@@H](CO)NC(=O)C(Cl)Cl)cc1` [Thiamphenicol], in series [2] (setting [4]), the viability at 50 µM was 57%.

For `CC(C)Cn1cnc2c(N)nc3ccccc3c21` [Imiquimod], the viability at 50 µM in series [2] (setting [6]) worked out at 64%.

As to `COC(=O)Nc1nc2ccc([S+]([O-])c3ccccc3)cc2[nH]1` (stereo not drawn) [Oxfendazole], the viability at 50 µM in series [2] (setting [3]) and in series [2] (setting [4]) was 54% each time.

Consider `Cc1c(O)cccc1C(=O)N[C@@H](CSc1ccccc1)[C@H](O)CN1C[C@H]2CCCC[C@H]2C[C@H]1C(=O)NC(C)(C)C` [Nelfinavir mesylate], for which the viability at 50 µM in series [2] (setting [4]) was found to be 66%.

For `NC[C@@H]1CC[C@@H](N)[C@@H](O[C@H]2[C@H](O)[C@@H](O[C@H]3O[C@H](CO)[C@@H](O)[C@H](N)[C@H]3O)[C@H](N)C[C@@H]2N)O1` [Dibekacin], the viability at 50 µM in series [2] (setting [4]) is 70%.

`COC(=O)c1ccc(O)c2nc3c(C=O)c(O)cc(O)c3nc12` [Lomofungin]: the viability at 50 µM in series [2] (setting [4]) came to 58%.

As to `C[C@H]1COc2c(C3(N)CC3)c(F)cc3c(=O)c(C(=O)O)cn1c23` [Pazufloxacin], the viability at 50 µM in series [2] (setting [4]) is 69%.

For the compound `CC(C)(C)CC(C)(C)c1ccc(O)c(Cc2ccc(Cl)cc2Cl)c1` [Clofoctol], the viability at 50 µM in series [2] (setting [4]) came to 73%.

As for `CC1(C)S[C@@H]2[C@H](NC(=O)[C@H](N)c3ccccc3)C(=O)N2[C@H]1C(=O)O` [Ampicillin], in series [2] (setting [4]), the viability at 50 µM stood at 64%.

Take `O=C(Nc1ccccc1)c1ccccc1O` [Salicylanilide]: the viability at 50 µM in series [2] (setting [6]) came to 63%.

In the case of `O=C(Nc1ccc(Cl)cc1)Nc1ccc(Cl)c(Cl)c1` [3,4,4′-Trichlorocarbanilide], the “Residual viable cells (SYBR/PI)” value in series [2] (setting [7]) worked out at 45%.

`COC1=CC(=O)C[C@@H](C)[C@]12Oc1c(Cl)c(OC)cc(OC)c1C2=O` [Griseofulvin]: the viability at 50 µM in series [2] (setting [3]) and in series [2] (setting [4]) was 63% in each case.

`CC(C)[C@H](N)C(=O)OCCOCn1cnc2c(=O)[nH]c(N)nc21` [Valacyclovir]: the viability at 50 µM in series [2] (setting [4]) came out at 58%.

Take `CCCc1cc(C(N)=S)ccn1` [Protionamide]: the viability at 50 µM in series [2] (setting [4]) was 63%.

As for `CO[C@H]1/C=C/O[C@@]2(C)Oc3c(C)c([O-])c4c(O)c(cc(O)c4c3C2=O)NC(=O)/C(C)=C\C=C\[C@H](C)[C@H](O)[C@@H](C)[C@@H](O)[C@@H](C)[C@H](OC(C)=O)[C@@H]1C.[Na+]` [Rifamycin SV], in series [1], the “Residual viable cells (Microscopy)” value is given as 60%.

`Oc1ccc(Cl)c2cccnc12` [Cloxyquin (5-chloro-8-hydroxy-quinoline), 5-chloro-8-hydroxy-quinoline]: the viability at 50 µM in series [2] (setting [4]) was found to be 60%.

Turning to `CCCOc1ccc2nc(NC(=O)OC)[nH]c2c1` [Oxibendazole], the viability at 50 µM in series [2] (setting [3]) and in series [2] (setting [4]) was 51% throughout.

With `NS(=O)(=O)c1ccc(C(=O)O)cc1` [Carzenide (4-Carboxybenzenesulfonamide), 4-Carboxybenzenesulfonamide], the viability at 50 µM in series [2] (setting [4]) came out at 59%.

With `c1ccc(C2CN3CCSC3=N2)cc1` (stereo not drawn) [Tetramisole], the viability at 50 µM in series [2] (setting [3]) and in series [2] (setting [4]) was 48% throughout.

For the compound `NC1CCN(c2nc3c(cc2F)c(=O)c(C(=O)O)cn3-c2ccc(F)cc2F)C1` (stereo not drawn) [Tosufloxacin], the viability at 50 µM in series [2] (setting [3]) and in series [2] (setting [4]) was 57% each time.

In the case of `Nc1ccn([C@@H]2CS[C@H](CO)O2)c(=O)n1` [Lamivudine], the viability at 50 µM in series [2] (setting [3]) and in series [2] (setting [4]) was 58% each time.

As to `C[C@@H]1[C@H](O)[C@@H](C)/C=C/C=C/CC/C=C/C=C/C=C/C=C/C(O[C@H]2O[C@H](C)[C@@H](O)[C@H](N)[C@@H]2O)CC2O[C@](O)(CC(O)C(O)CCC(O)CC(O)CC(O)CC(=O)O[C@H]1C)CC(O)C2C(=O)O` (stereo partly drawn) [Nystatin], in series [2] (Table 1, drugs 50 μM, 7 day old stationary phase cells treated for 7 days), the “Residual viable cells (SYBR Green/PI)” value was determined as 64%. Besides, the “Residual viable cells (SYBR/PI)” value in series [2] (setting [7]) was determined as 64%. The “activity” value in series [2] is “reasonable activity”.

On to `O=c1[nH]c(=O)n([C@H]2C[C@H](O)[C@@H](CO)O2)cc1C(F)(F)F` [Trifluridine], for which the viability at 50 µM in series [2] (setting [4]) was 55%.

For the compound `Nc1nc(O)c2ncn(COC(CO)CO)c2n1` [Ganciclovir], the viability at 50 µM in series [2] (setting [3]) and in series [2] (setting [4]) was 53% in each case.

For `CC(N)C12CC3CC(CC(C3)C1)C2` (stereo not drawn) [Rimantadine], in series [2] (setting [4]), the viability at 50 µM is 68%.

As for Penimepicycline, the “Residual viable cells (Microscopy)” value in series [1] is reported as 60%.

As to `NCC[C@H](O)C(=O)N[C@@H]1C[C@H](N)[C@@H](O[C@H]2O[C@H](CN)[C@@H](O)[C@H](O)[C@H]2O)[C@H](O)[C@H]1O[C@H]1O[C@H](CO)[C@@H](O)[C@H](N)[C@H]1O` [Amikacin], in series [2] (setting [4]), the viability at 50 µM is 57%.

Take `Nc1ccc([As](=O)(O)O)cc1` [p-Arsanilic acid]: the “Residual viable cells (SYBR/PI)” value in series [2] (setting [7]) stood at 49%.

In the case of `Clc1ccc(CCC(Cn2ccnc2)Sc2c(Cl)cccc2Cl)cc1` (stereo not drawn) [Butoconazole nitrate], the viability at 50 µM in series [2] (setting [4]) was determined as 74%.
